Test results: paper PMC8343220, “The selectivity of α‐adrenoceptor agonists for the human α1A, α1B, and α1D‐adrenoceptors” (Pharmacology Research & Perspectives, 2021)

How the values were obtained:
human α1B‐adrenoceptor [1] = biological target: T1, human α1B‐adrenoceptor (Homo sapiens, UniProt P35368); assay: ^3H‐prazosin whole‐cell radioligand binding, CHO‐α1B cells; conditions: for Kd: CHO‐α1B cells
T1 construct: expressed in transfected cells; host or cells: CHO-K1
T1 sequence (P35368 1-520): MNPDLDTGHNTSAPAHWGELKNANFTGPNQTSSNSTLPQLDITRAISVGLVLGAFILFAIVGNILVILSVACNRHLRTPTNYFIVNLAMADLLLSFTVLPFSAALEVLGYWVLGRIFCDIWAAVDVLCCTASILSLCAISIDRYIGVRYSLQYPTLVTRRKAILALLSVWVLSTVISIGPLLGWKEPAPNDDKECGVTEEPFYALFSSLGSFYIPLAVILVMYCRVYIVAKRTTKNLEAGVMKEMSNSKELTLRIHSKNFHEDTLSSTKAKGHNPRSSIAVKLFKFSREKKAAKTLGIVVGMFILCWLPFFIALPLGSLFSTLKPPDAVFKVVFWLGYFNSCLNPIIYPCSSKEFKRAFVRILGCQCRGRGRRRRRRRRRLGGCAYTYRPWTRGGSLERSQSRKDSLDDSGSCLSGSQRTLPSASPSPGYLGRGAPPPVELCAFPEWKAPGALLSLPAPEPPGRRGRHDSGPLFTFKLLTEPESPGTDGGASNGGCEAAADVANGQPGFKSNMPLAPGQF

[2] = biological target: T2, human α1D‐adrenoceptor (full length) (Homo sapiens, UniProt P25100); assay: ^3H‐prazosin whole‐cell radioligand binding, CHO‐α1D cells; conditions: for Kd: CHO‐α1D cells; for Affinity selectivity ratio α1B vs α1D: higher affinity for α1D than α1B
T2 construct: human α1D‐adrenoceptor (full length) were used; expressed in transfected cells; host or cells: CHO-K1
T2 sequence (P25100 1-572): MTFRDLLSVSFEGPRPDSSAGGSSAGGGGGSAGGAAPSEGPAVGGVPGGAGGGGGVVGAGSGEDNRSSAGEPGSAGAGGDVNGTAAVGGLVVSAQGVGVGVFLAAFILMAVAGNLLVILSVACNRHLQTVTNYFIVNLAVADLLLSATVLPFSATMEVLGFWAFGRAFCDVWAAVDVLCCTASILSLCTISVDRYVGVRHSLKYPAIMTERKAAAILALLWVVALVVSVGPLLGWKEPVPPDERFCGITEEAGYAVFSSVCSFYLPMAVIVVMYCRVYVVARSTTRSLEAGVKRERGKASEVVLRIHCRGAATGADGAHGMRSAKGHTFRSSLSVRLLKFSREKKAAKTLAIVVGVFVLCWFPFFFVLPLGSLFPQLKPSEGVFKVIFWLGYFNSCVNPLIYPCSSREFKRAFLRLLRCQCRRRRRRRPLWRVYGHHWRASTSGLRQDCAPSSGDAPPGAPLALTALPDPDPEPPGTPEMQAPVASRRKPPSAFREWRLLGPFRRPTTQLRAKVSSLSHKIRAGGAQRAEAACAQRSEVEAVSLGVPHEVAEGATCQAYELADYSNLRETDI

human α1A‐adrenoceptor = biological target: T3, human α1A‐adrenoceptor (Homo sapiens, UniProt P35348); assay: Intracellular free calcium mobilization, CHO‐α1A cells; assay type: cell-based; conditions: CHO‐α1A cells; for Log efficacy ratio KD /EC50: binding KD and calcium EC50; for EC50: given as log EC50 (negative), read-out: Intracellular calcium release Log EC50 (converted); for Intracellular calcium release % ionomycin: maximal response as % of 10 µM ionomycin
T3 construct: expressed in transfected cells; host or cells: CHO-K1
T3 sequence (P35348 1-466): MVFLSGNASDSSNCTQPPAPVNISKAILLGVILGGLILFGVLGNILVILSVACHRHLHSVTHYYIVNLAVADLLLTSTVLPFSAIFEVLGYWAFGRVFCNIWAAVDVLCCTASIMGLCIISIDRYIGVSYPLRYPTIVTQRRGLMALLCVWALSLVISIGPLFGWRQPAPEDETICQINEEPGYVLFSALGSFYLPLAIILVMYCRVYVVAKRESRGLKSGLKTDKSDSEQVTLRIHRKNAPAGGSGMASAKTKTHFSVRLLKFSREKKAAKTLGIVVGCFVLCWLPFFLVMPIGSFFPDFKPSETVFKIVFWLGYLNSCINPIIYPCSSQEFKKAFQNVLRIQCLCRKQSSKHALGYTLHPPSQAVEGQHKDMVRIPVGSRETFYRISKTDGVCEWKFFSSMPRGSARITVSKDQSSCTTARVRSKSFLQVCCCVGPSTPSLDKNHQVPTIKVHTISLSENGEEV

human α1B‐adrenoceptor [3] = biological target: T1, human α1B‐adrenoceptor; assay: Intracellular free calcium mobilization, CHO‐α1B cells; assay type: cell-based; conditions: CHO‐α1B cells; for EC50: given as log EC50 (negative numbers), read-out: Intracellular calcium release Log EC50 (converted); for Log efficacy ratio KD /EC50: intrinsic efficacy ratio, KD from binding / EC50 calcium; for Intracellular calcium release % ionomycin: maximal response as % of 10 µM ionomycin response
[4] = biological target: T2, human α1D‐adrenoceptor (full length); assay: Intracellular free calcium mobilization, CHO‐α1D cells; assay type: cell-based; conditions: CHO‐α1D cells; for Log efficacy ratio KD /EC50: intrinsic efficacy ratio, binding KD / calcium EC50; for EC50: log values given negative, read-out: Intracellular calcium release Log EC50 (converted); for Intracellular calcium release % ionomycin: maximal response as % of 10 µM ionomycin
human α1B‐adrenoceptor [5] = biological target: T1, human α1B‐adrenoceptor; assay: ERK1/2‐phosphorylation (Surefire Alphascreen), CHO‐α1B cells; assay type: cell-based; conditions: CHO‐α1B cells, for bi‐phasic responses the initial stimulatory part; for EC50: read-out: ERK1/2‐phosphorylation Log EC50 (converted); for ERK1/2‐phosphorylation % PDBu: maximal response as % PDBu response
[6] = biological target: T2, human α1D‐adrenoceptor (full length); assay: ERK1/2‐phosphorylation (Surefire Alphascreen), CHO‐α1D cells; assay type: cell-based; conditions: CHO‐α1D cells; for EC50: read-out: ERK1/2‐phosphorylation Log EC50 (converted); for ERK1/2‐phosphorylation % PDBu: maximal response as % of PDBu
[7] = tested on: parental CHO cell line without any transfected receptors; assay: ERK1/2‐phosphorylation, parent CHO cells without transfected receptors; assay type: cell-based, Chinese hamster; conditions: Cricetulus griseus, CHO; read-out: ERK1/2-phosphorylation % PDBu at 100μM
human α1B‐adrenoceptor [8] = biological target: T1, human α1B‐adrenoceptor; assay: ^3H‐cAMP accumulation, CHO‐α1B cells; assay type: cell-based; conditions: CHO‐α1B cells; for cAMP accumulation % forskolin: % forskolin maximum response; for EC50: read-out: cAMP accumulation Log EC50 (converted)
[9] = biological target: T2, human α1D‐adrenoceptor (full length); assay: ^3H‐cAMP accumulation, CHO‐α1D cells; assay type: cell-based; conditions: cAMP accumulation without forskolin
human α1B‐adrenoceptor [10] = biological target: T1, human α1B‐adrenoceptor; assay: ^3H‐cAMP accumulation in the presence of 10 μM forskolin, CHO‐α1B cells; assay type: cell-based; conditions: CHO‐α1B cells; for cAMP accumulation (in presence of forskolin) Fold increase: fold increase of the forskolin response; for EC50: in presence of forskolin, read-out: cAMP accumulation (in presence of forskolin) Log EC50 (converted)
[11] = biological target: T2, human α1D‐adrenoceptor (full length); assay: ^3H‐cAMP accumulation in the presence of 10 μM forskolin, CHO‐α1D cells; assay type: cell-based; conditions: CHO‐α1D cells; for cAMP (in presence of forskolin) Fold increase: fold increase of the forskolin response
[12] = tested on: parental CHO cell line without any transfected receptors; assay: Forskolin‐stimulated cAMP accumulation, parent CHO cells without transfected receptors; assay type: cell-based, Chinese hamster; conditions: CHO cells without transfected receptors; in presence of forskolin
[13] = in presence of forskolin, log values given negative
[14] = Log KD α1B, ^3H‐prazosin whole cell binding, given as log KD (negative), mean ± SEM
[15] = Log KD, ^3H‐prazosin binding, whole‐cell binding (from Table 1), given as log KD (negative numbers)
[16] = 3H‐prazosin binding Log KD, whole‐cell binding (from Table 1), log values given negative
[17] = Log KD α1D, ^3H‐prazosin whole cell binding, given as log KD (negative), mean ± SEM, 'early plateau' = specific binding not fully inhibited

Compound	Affinity selectivity ratio α1B vs α1D [2]	Log efficacy ratio KD /EC50 (human α1A‐adrenoceptor)	EC50 (human α1A‐adrenoceptor)	Intracellular calcium release % ionomycin (human α1A‐adrenoceptor)	EC50 (human α1B‐adrenoceptor [3])	Log efficacy ratio KD /EC50 (human α1B‐adrenoceptor [3])	Intracellular calcium release % ionomycin (human α1B‐adrenoceptor [3])	Log efficacy ratio KD /EC50 [4]	EC50 [4]	Intracellular calcium release % ionomycin [4]	EC50 (human α1B‐adrenoceptor [5])	ERK1/2‐phosphorylation % PDBu (human α1B‐adrenoceptor [5])	EC50 ([6]; log values given negative)	ERK1/2‐phosphorylation % PDBu [6]	Emax at 100 µM [7]	cAMP accumulation % forskolin (human α1B‐adrenoceptor [8])	EC50 (human α1B‐adrenoceptor [8])	cAMP accumulation (in presence of forskolin) Fold increase (human α1B‐adrenoceptor [10])	EC50 (human α1B‐adrenoceptor [10])	cAMP accumulation (in presence of forskolin) Log EC50 [12]	other results
N=C(N)NC(=O)Cc1c(Cl)cccc1Cl [Guanfacine]	11.5 fold	1.95	52.5 nM	56.8 ± 2.2%	26.9 nM	3.70	59.0 ± 2.4%	0.53	3470 nM	28.6 ± 2.0%	195 nM	97.4 ± 2.7%	6920 nM	16.1 ± 4.0%	2.5 ± 1.7%	39.0 ± 5.8%	1620 nM	2.67 ± 0.18 fold	324 nM	No response	Kd (human α1B‐adrenoceptor [1]; given as log KD (negative), mean ± SEM): 135000 nM; Kd ([2]; given as log KD (negative), mean ± SEM, 'early plateau' = specific binding not fully inhibited): 11700 nM; cAMP Log EC50 [9]: No response; cAMP (in presence of forskolin) Fold increase [11]: 1.20 ± 0.7; EC50 [11, 13]: 229 nM
Clc1ccc2nsnc2c1NC1=NCCN1 [Tizanidine]	11.5 fold	1.98	36.3 nM	53.5 ± 1.6%	89.1 nM	2.70	48.8 ± 1.8%				288 nM	57.7 ± 5.3%		No response	6.7 ± 3.3%	10.7 ± 1.5%	708 nM	2.01 ± 0.11 fold	182 nM	No response	Kd (human α1B‐adrenoceptor [1]; [14]): 44700 nM; Kd (human α1B‐adrenoceptor [1]; [15]): 44700 nM; Kd [2, 16]: 3890 nM; Kd [2, 17]: 3890 nM; Intracellular calcium release % Ionomycin at 100 µM ([4]; response at 100 µM ligand (no EC50 given)): 2.5 ± 0.8%; ERK1/2‐phosphorylation Log EC50 ([6]; log values given negative): No response
c1ccc2c(CC3=NCCN3)cccc2c1 [Naphazoline]		2.39	1.17 nM	50.9 ± 2.6%	9.33 nM	2.29	38.9 ± 2.9%	1.24	117 nM	11.8 ± 2.2%	151 nM	71.1 ± 7.2%	13800 nM	33.0 ± 4.7%	9.2 ± 3.3%	3.9 ± 0.7%	12.9 nM	1.65 ± 0.07 fold	5.5 nM	No response	Kd (human α1B‐adrenoceptor [1]; [14]): 1820 nM; Kd (human α1B‐adrenoceptor [1]; [15]): 1820 nM; Affinity selectivity ratio α1B vs α1D (human α1B‐adrenoceptor [1]; left sub‐column: higher affinity for α1B than α1D): 1.1 fold; Kd [2, 16]: 2040 nM; Kd [2, 17]: 2040 nM; cAMP Log EC50 [9]: No response; cAMP (in presence of forskolin) Fold increase [11]: No response; cAMP (in presence of forskolin) Log EC50 [11, 13]: No response
